The values that follow come from patent US8158621B2, “Methods of treating or preventing autoimmune diseases with 2,4-pyrimidinediamine compounds” (Rigel Pharmaceuticals, Inc., priority 2002, dated 2012).

One experiment deals with Human Jurkat T-cells (clone N). Briefly: Jurkat T-cell activation (anti-TCR, CD69 upregulation). It is filed as cell-based.
Details: not given
The procedure, abridged:
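Readout is CD69 upregulation by flow cytometry (anti-CD69-APC, 20 min at 4 °C) after 20 h anti-TCR (C305, 500 ng/ml) stimulation at 37 °C.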
`CCOC(=O)C(C)(C)c1ccc(Nc2nc(Nc3ccc(OCC(=O)OC)cc3)ncc2F)cc1` [Compound R935157] yielded an IC50 above 10 µM. Same read-out and setting: next, `CNC(=O)c1cc(COc2cccc(Nc3ncc(F)c(Nc4ccc5c(c4)OCCO5)n3)c2)co1` [Compound R935213]: 3.09 µM; `Cc1noc(COc2ccc(Nc3ncc(F)c(Nc4ccc(OC(C)C)cc4)n3)cc2)n1` [Compound R935142]: 9.67 µM. The same measure, in the same setting: next, `COc1ccc([C@@H](C)Nc2ncc(Br)c(N[C@H](C)c3ccc(OC)cc3)n2)cc1` [Compound R935016]: 5.36 µM; `CNC(=O)COc1cccc(Nc2ncc(F)c(Nc3cccc(N(CCO)CCO)c3)n2)c1` [Compound R950266]: 3.66 µM. Still for that read-out and setting: next, `CC(C)NC(=O)COc1ccc(Nc2ncc(C#N)c(Nc3ccc(OCC(=O)NC(C)C)cc3)n2)cc1` [Compound R925861]: 20.2 µM.

For the compound `COC(=O)COc1ccc(Nc2ncc(F)c(Nc3ccc(OC(C)C)cc3)n2)cc1` [Compound R935159], the IC50 was above 10 µM. Same read-out and setting: next, `CNC(=O)COc1cccc(Nc2ncc(F)c(Nc3ccc(C)c(C(F)(F)F)c3)n2)c1` [Compound R926922]: 6.12 µM. Still for that read-out and setting: next, `O=[N+]([O-])c1ccc(NCCO)c(Nc2ncc(F)c(Nc3cc([N+](=O)[O-])ccc3NCCO)n2)c1` [Compound R950150]: above 10 µM; `NCCNC(=O)c1cc2cc(Nc3ncc(F)c(Nc4ccc5oc(C(=O)NCCN)cc5c4)n3)ccc2o1` [Compound R950168]: 10.7 µM; `COC(=O)c1cc2cc(Nc3ncc(F)c(Nc4ccc5cnn(CCC(=O)O)c5c4)n3)ccc2o1` [Compound R935296]: above 10 µM. Still for that read-out and setting: next, `COC(=O)C(C)Oc1ccc(Nc2ccnc(Nc3ccc(OC(C)C(=O)OC)cc3)n2)cc1` (racemic) [Compound R926257]: above 10 µM; `Cn1nnnc1COc1ccc(Nc2ncc(F)c(Nc3cccc(O)c3)n2)cc1` [Compound R920861]: 3.28 µM. In turn, `CNC(=O)COc1cccc(Nc2ncc(F)c(Nc3cccc(NCCO)c3)n2)c1` [Compound R950265] came in with an IC50 of 0.982 µM.

The compound `O=C(COc1ccc(Nc2ncc(F)c(Nc3ccc4c(c3)OCCO4)n2)cc1)NCCO` [Compound R909239] came in with an IC50 of 3.06 µM.

In turn, `CNC(=O)COc1cccc(Nc2ncc(F)c(Nc3cnc4c(c3)OC(C)(C)C(=O)N4)n2)c1` [Compound R940345] returned an IC50 of 5.4 µM. This IC50 lies about 1.8-fold higher than the previous one. The same measure, in the same setting: the result for `COC(=O)COc1cc(O)cc(Nc2ncc(F)c(Nc3cccc(O)c3)n2)c1` [Compound R926927] reads 5.53 µM; that for `CCOC(=O)C(C)(C)c1ccc(Nc2nc(Nc3cccc(O)c3)ncc2F)cc1` [Compound R935169], 7.54 µM. The same measure, in the same setting: next, `CON=C(N)COc1ccc(Nc2nc(Nc3ccc4c(c3)OCCO4)ncc2F)cc1` [Compound R945175]: 3.79 µM; `COC(=O)COc1ccc(Nc2ccnc(Nc3ccc(OCC(=O)OC)cc3)n2)cc1` [Compound R926256]: above 10 µM; `CCOC(=O)C(C)(C)c1ccc(Nc2nc(Nc3ccc(OC(C)C)cc3)ncc2F)cc1` [Compound R935167]: above 10 µM.

In the case of `CC(C)(C)c1cccc(Nc2nc(Nc3ccc4oc(CO)cc4c3)ncc2F)c1` [Compound R940287], the IC50 turned out to be 6.2 µM. In other words, the single-digit micromolar range. On the same count and under the same terms, the result for `CNC(=O)C(C)(C)Oc1cccc(Nc2ncc(F)c(Nc3ccc4c(c3)OCCO4)n2)c1` [Compound R926915] reads above 10 µM. Still for that read-out and setting: the result for `CN(C)CCCNC(=O)CNc1cccc(Nc2ncc(F)c(Nc3cccc(NCCO)c3)n2)c1` [Compound R950237] reads 12.9 µM; that for `Cn1cc2cc(Nc3ncc(F)c(Nc4cccc(O)c4)n3)ccc2n1` [Compound R935299], 0.824 µM. Same read-out and setting: next, `CCOC(=O)COc1cccc(Nc2ncc(F)c(Nc3cc(OC)cc(OC)c3)n2)c1` [Compound R926795]: above 10 µM; `COC(=O)C(C)Oc1ccc(Nc2ncc(F)c(Nc3ccc(OC(C)C(=O)OC)cc3)n2)cc1` (mixture of isomers) [Compound R926254]: above 10 µM; `CSc1nc2ccc(Nc3ncc(F)c(Nc4cccc(O)c4)n3)cc2s1` [Compound R950212]: 9.5 µM. `Cc1cc(Nc2nc(Nc3cccc(OCCN4CCOCC4)c3)ncc2F)cc(C)c1O` [Compound R940255] registered an IC50 of 1.51 µM. Same read-out and setting: next, `Cc1nc(COc2cccc(Nc3nc(Nc4ccc(OC(C)C)cc4)ncc3F)c2)no1` [Compound R945138]: above 10 µM. Same read-out and setting: next, `CC(C)NC(=O)COc1cccc(Nc2ncc(F)c(Nc3ccc4c(c3)OCCO4)n2)c1` [Compound R926830]: 4.16 µM; `COC(=O)COc1cccc(Nc2ncc(F)c(Nc3cc(C)c(OC)c(C)c3)n2)c1` [Compound R945153]: 9.74 µM; `CNC(=O)C(C)(C)Oc1cccc(Nc2ncc(F)c(Nc3cccc(O)c3)n2)c1` [Compound R926913]: 5.65 µM. On to `Nc1ccc(Nc2ncc(F)c(Nc3ccc(N)cc3)n2)cc1` [Compound R950121], for which the IC50 was 6.27 µM. Turning to `CC(C)(C)OC(=O)COc1ccc(Nc2nc(Cl)c(Cl)c(Nc3ccc(OCC(=O)OC(C)(C)C)cc3)n2)cc1` [Compound R926576], the half-inhibitory concentration (IC50) was above 10 µM. On the same count and under the same terms, next, `OCCNc1cccc(Nc2ncc(F)c(Nc3ccc4c(c3)OCCO4)n2)c1` [Compound R950208]: 1.77 µM.

The same experiment, now with this note: Homo sapiens.
With `Cc1ccc([N+](=O)[O-])cc1Nc1ncc(F)c(Nc2cc([N+](=O)[O-])ccc2C)n1` [Compound R950146], the IC50 is above 10 µM. Still for that read-out and setting: next, `Cc1ccc(Nc2ncc(F)c(Nc3ccc(C)c([N+](=O)[O-])c3)n2)cc1[N+](=O)[O-]` [Compound R950144]: above 10 µM; `O=[N+]([O-])c1cc(Nc2ncc(F)c(Nc3ccc(F)c([N+](=O)[O-])c3)n2)ccc1F` [Compound R950148]: above 10 µM.

Still in this experiment, the particulars now being: Homo sapiens, Jurkat.
In turn, `COc1ccc(OCCNc2ncc(F)c(Nc3ccc4c(c3)OCCO4)n2)cc1` [Compound R950204] returned an IC50 above 10 µM. The compound `O=C(O)c1cc(Nc2ncc(F)c(Nc3ccc(O)c(C(=O)O)c3)n2)ccc1O` [Compound R945041] showed an IC50 above 10 µM. Same read-out and setting: the result for `O=[N+]([O-])c1cnc(Nc2ccc3c(c2)OCCO3)nc1Nc1ccc2c(c1)OCCO2` [Compound R940095] reads above 10 µM; that for `COC(=O)c1cc2cc(Nc3ncc(F)c(Nc4cccc(N)c4)n3)ccc2o1` [Compound R950162], 8.92 µM; that for `COC(=O)c1cc2cc(Nc3ncc(F)c(Nc4ccc5c(c4)OCCO5)n3)ccc2o1` [Compound R926690], 13.4 µM. Compound `CCOC(=O)c1cc2cc(Nc3ncc(F)c(Nc4ccc5[nH]c(C(=O)OCC)cc5c4)n3)ccc2[nH]1` [Compound R926616] came in with an IC50 of 1.91 µM. On the same count and under the same terms, next, `OCc1cccc(Nc2ncc(F)c(Nc3cccc(CO)c3)n2)c1` [Compound R925757]: above 10 µM; `CC1(Cl)CC(Nc2ncc(F)c(Nc3ccc4c(c3)-n3ccnc3CO4)n2)=CC=C1O` (stereo not shown) [Compound R935263]: 2.02 µM. The same measure, in the same setting: the result for `CN(C)c1ccc(Nc2ncc(F)c(Nc3ccc(N(C)C)cc3)n2)cc1` [Compound R926086] reads 6.63 µM; that for `Nc1cc(Nc2ccnc(Nc3cc(N)cc(C(F)(F)F)c3)n2)cc(C(F)(F)F)c1` [Compound R950143], 4.57 µM; that for `COc1ccc(Nc2nc(Nc3cccc(O)c3)ncc2F)cc1OC` [Compound R926147], above 10 µM. Same read-out and setting: next, `Oc1ccc(Nc2ncc(F)c(Nc3ccc(O)c(Cl)c3)n2)cc1Cl` [Compound R926675]: 2.37 µM; `COc1cc(-c2ccccc2)c(C)cc1Nc1ncc(Br)c(Nc2cc(C)c(-c3ccccc3)cc2OC)n1` [Compound R925801]: above 10 µM.

The compound `COc1cc(Nc2ncc(F)c(Nc3cccc(O)c3)n2)cc(OC)c1OC` [Compound R926761] gave an IC50 of 0.694 µM. The same measure, in the same setting: the result for `Oc1cccc(Nc2ncc(F)c(Nc3ccc4[nH]ccc4c3)n2)c1` [Compound R926932] reads 2.91 µM.

As to `CCOc1ccc(Nc2cc(Cl)nc(Nc3ccc(OCC)cc3)n2)cc1` [Compound R926072], the IC50 was above 10 µM. For `c1ccc(-c2cnc(Nc3ccc4c(c3)OCCO4)nc2Nc2ccc3c(c2)OCCO3)cc1` [Compound R925784], the IC50 was above 10 µM.

For `Oc1cccc(Nc2ncc(F)c(NCc3csc4ccc(Cl)cc34)n2)c1` [Compound R926722], the IC50 was above 10 µM. `OCCOc1cccc(Nc2nc(Nc3cccc(O)c3)ncc2F)c1` [Compound R935170]: half-maximal inhibition (IC50) required 6.03 µM. This lies in the single-digit micromolar range. On the same count and under the same terms, the result for `CCOC(=O)c1nc(Nc2cccc(O)c2)nc(Nc2cccc(O)c2)c1N` [Compound R925856] reads above 10 µM; that for `CCOC(=O)C(Nc1ncc(C#N)c(NC(C(=O)OCC)C(C)C)n1)C(C)C` (stereo not shown) [Compound R925814], 14.2 µM; that for `CNC(=O)c1cc2cc(Nc3ncc(F)c(Nc4cccc(C(C)(C)C)c4)n3)ccc2o1` [Compound R940291], 9.45 µM. `N#Cc1cccc(Nc2ncc(F)c(Nc3cccc(C#N)c3)n2)c1` [Compound R945051]: the concentration for half-maximal inhibition (IC50) was above 10 µM. Same read-out and setting: the result for `Cc1ccc(Nc2ncc(F)c(Nc3ccc(C)c(N)c3)n2)cc1N` [Compound R950129] reads 6.88 µM. `N#Cc1cnc(Nc2ccc3c(c2)OCCO3)nc1Nc1ccc2c(c1)OCCO2` [Compound R925773]: the IC50 was 14.4 µM. For `OCc1cc2cc(Nc3ncc(F)c(Nc4cccc(O)c4)n3)ccc2o1` [Compound R926707], half-maximal inhibition (IC50) required 2.68 µM. Same read-out and setting: the result for `CC(Nc1nc(Nc2cccc(O)c2)ncc1F)c1ccc(F)cc1` (racemic) [Compound R935021] reads above 10 µM; that for `Fc1cnc(Nc2ccc3c(c2)OCO3)nc1Nc1ccc2c(c1)OCO2` [Compound R925776], 17.1 µM. On the same count and under the same terms, next, `CC(=O)Nc1cccc(OCCCNc2ncc(F)c(Nc3ccc4c(c3)OCCO4)n2)c1` [Compound R926787]: above 10 µM; `COC(=O)c1cc(Nc2nc(Nc3cccc(O)c3)ncc2Br)cn1C` [Compound R935025]: 7.95 µM. Regarding `CNC(=O)c1cc2cc(Nc3nc(Nc4ccc5c(c4)OCCO5)ncc3F)ccc2o1` [Compound R926491], the IC50 stood at 2.73 µM.
